Data on nine compounds can be found in ChEMBL document CHEMBL5230130, “COVID-19 therapy: What weapons do we bring into battle?” (Bioorg Med Chem, 2020).

By IC50 is commonly meant the concentration that gives 50% inhibition. A word on the inhibition: it is the change of the read-out against control, counted positive when it falls. The term CC50 denotes the concentration giving 50% cytotoxicity. By EC50 is commonly meant the concentration at which the effect is half-maximal.

In brackets after ≈: the same amount, converted by molar mass.

Data set [1] relates to SARS-CoV-2. Description: Antiviral activity against SARS-COV 2. In kind it is functional, organism-based. The settings on record: Severe acute respiratory syndrome coronavirus 2.
In data set [2] the test system is SARS-CoV-2. Put plainly: Antiviral activity against SARS-COV-2 infected in African green monkey Vero E6 cells assessed as inhibition of viral growth at 6.25 uM relative to control. To be noted: Severe acute respiratory syndrome coronavirus 2, Vero C1008. In kind it is functional.
Data set [3] relates to Middle East respiratory syndrome-related coronavirus. Put plainly: Antiviral activity against MERS-CoV infected in human Calu-3 2B4 cells assessed as reduction in virus-induced cytopathic effect incubated for 48 hrs by celltiterglo assay. The format is functional, organism-based. To be noted: Calu-3 2B4, 48 h. On the technique in general: Cytopathic effects are the visible damage that an infection or toxin causes in cultured cells.

Data set [4] in a line: Cytotoxicity against human Calu-3 2B4 cells assessed as cell growth inhibition measured after 48 hrs by celltiterglo assay. In kind it is toxicity, cell-based.
Data set [5] has as its system SARS-CoV-2. Description: Antiviral activity against SARS-COV-2 infected in African green monkey Vero E6 cells assessed as inhibition of viral growth at 0.195 uM relative to control. To be noted: Severe acute respiratory syndrome coronavirus 2, Vero C1008. In kind it is functional.
For data set [6], the system named is SARS-CoV. Description: Antiviral activity against SARS-COV infected in African green monkey Vero E6 cells assessed as reduction in virus-induced cytopathic effect incubated for 48 hrs by celltiterglo assay. The format is functional, organism-based. To be noted: Severe acute respiratory syndrome-related coronavirus, Vero C1008, 48 h.
The subject of data set [7] is Middle East respiratory syndrome-related coronavirus. Put plainly: Antiviral activity against MERS-CoV infected in African green monkey Vero E6 cells assessed as reduction in virus-induced cytopathic effect incubated for 48 hrs by celltiterglo assay. The format is functional, organism-based. To be noted: Vero C1008, 48 h.
Data set [8] deals with RAW264.7. Put plainly: Anti-inflammatory activity against mouse RAW264.7 cells assessed as reduction in LPS induced IL-6 level by ELISA analysis. In kind it is functional, cell-based.
The nature of data set [9]: Inhibition of human enteric coronavirus strain 4408 nucleoprotein.
Data set [10] is described as follows: Inhibition of Bovine coronavirus nucleoprotein.
Data set [11] relates to Peritoneal macrophage. Description: Anti-inflammatory activity against mouse peritoneal macrophages assessed as reduction in LPS induced IL-6 level by ELISA analysis. In kind it is functional, cell-based.
Data set [12] relates to SARS-CoV-2. Description: Antiviral activity against SARS-COV-2 infected in African green monkey Vero E6 cells. In kind it is functional, organism-based. To be noted: Severe acute respiratory syndrome coronavirus 2, Vero C1008.
Data set [13] can be described thus: Antiviral activity against hCoV-EMC/2012 infected in African green monkey Vero cells assessed as reduction in virus-induced cytopathic effect incubated for 24 hrs by […] assay. In kind it is functional, cell-based, Human betacoronavirus 2c EMC/2012. To be noted: Middle East respiratory syndrome-related coronavirus.
Data set [14] concerns SARS-CoV-2. Put plainly: Antiviral activity against SARS-CoV-2 nCoV-2019 BetaCoV/Wuhan/WIV04/2019 infected in African green monkey Vero E6 cells assessed as reduction in virus-induced cytopathic effect incubated for 48 hrs by qRT-PCR analysis. The format is functional, organism-based. The settings on record: Severe acute respiratory syndrome coronavirus 2, nCoV-2019 BetaCoV/Wuhan/WIV04/2019, Vero C1008, 48 h.

Data set [15] can be described thus: Cytotoxicity against African green monkey Vero E6 cells assessed as cell growth inhibition measured after 48 hrs by CCK-8 assay. The format is toxicity, cell-based, Vero C1008. The settings on record: chlorocebus sabaeus. Background: Tetrazolium dyes change colour on reduction, which living cells bring about.
Data set [16] in a line: Antiviral activity against hCoV-EMC/2012 infected in monkey LLC-MK2 cells assessed as reduction in viral titers. In kind it is functional, Human betacoronavirus 2c EMC/2012.
Data set [17] has as its system Canine coronavirus. Put plainly: Antiviral activity against Canine coronavirus S-378 infected in dog A-72 cells. The settings on record: Alphacoronavirus 1, S-378, A-72. The format is functional, organism-based.
The test system of data set [18] is SARS-CoV-2. Description: Antiviral activity against SARS-COV-2 Australia/VIC01/2020 infected in African green monkey Vero cells by RT-PCR assay. The format is functional, organism-based, Severe acute respiratory syndrome coronavirus 2.

In the case of `CC(=O)N[C@@H]1[C@H](Oc2c3cc4cc2Oc2ccc(cc2Cl)[C@@H](O[C@@H]2O[C@@H](CO)[C@@H](O)[C@H](O)[C@@H]2NC(C)=O)[C@@H]2NC(=O)[C@H](NC(=O)[C@@H]4NC(=O)[C@H]4NC(=O)[C@@H](Cc5ccc(c(Cl)c5)O3)NC(=O)[C@H](N)c3ccc(O)c(c3)Oc3cc(O)cc4c3)c3ccc(O)c(c3)-c3c(O[C@H]4O[C@H](CO)[C@@H](O)[C@@H](O)[C@@H]4O)cc(O)cc3[C@@H](C(=O)O)NC2=O)O[C@@H](CO)[C@@H](O)[C@@H]1O`, the IC50 in data set [1] was 1.66 µM.
As for `CCC(CC)COC(=O)[C@H](C)N[P@](=O)(OC[C@H]1O[C@@](C#N)(c2ccc3c(N)ncnn23)[C@H](O)[C@@H]1O)Oc1ccccc1`, in data set [2], the inhibition at 6.25 µM was determined as 64.9%. Further, the IC50 in data set [3] stood at 0.025 µM. Besides, the CC50 at 48 h in data set [4] turned out to be 10 µM.
Consider `CC[C@H]1CN2CCc3cc(OC)c(OC)cc3[C@@H]2C[C@@H]1C[C@H]1NCCc2cc(OC)c(OC)cc21` [EMETINE], for which the inhibition at 0.195 µM in data set [5] came to 64.9%.
As to `Nc1ccn([C@@H]2O[C@H](CO)[C@@H](O)C2(F)F)c(=O)n1` [GEMCITABINE], the EC50 came out at 4.9 µM in [6] and 1.2 µM in data set [7].
As for `CC(=O)Oc1ccccc1C(=O)Nc1ncc([N+](=O)[O-])s1` [NITAZOXANIDE], the IC50 in data set [8] came out at 1540 µM; in data set [9] it was 0.3 µg/mL (≈ 0.976 µM); in [10], 0.3 µg/mL (≈ 0.976 µM); in data set [11] it was 2000 µM.
In turn, `COC(=O)C[C@](O)(CCCC(C)(C)O)C(=O)O[C@@H]1C(OC)=C[C@]23CCCN2CCc2cc4c(cc2[C@H]13)OCO4` [OMACETAXINE MEPESUCCINATE] gave an EC50 in [12] of 2.1 µM.
As to `NC(=O)c1ncn([C@@H]2O[C@H](CO)[C@@H](O)[C@H]2O)n1` [RIBAVIRIN], the IC50 in [13] turned out to be 41.4 µg/mL (≈ 170 µM). For the same compound, in [14], the EC50 is 11000 µM. Further, the CC50 at 48 h in data set [15] was greater than 400 µM. For the same compound, the TCID50 in data set [16] stood at 13.7 µg/mL.
In the case of `O=C(Nc1ncc([N+](=O)[O-])s1)c1ccccc1O` [TIZOXANIDE], in data set [17], inhibition was half-maximal at 1 µg/mL (≈ 3.77 µM) (IC50).
Compound IVERMECTIN registered an IC50 in [18] of 2 µM.
